Measurements: patent US20260248972A1, “DUAL RECEPTOR TARGETING RADIOLIGANDS AND USES THEREOF RELATED APPLICATIONS” (priority 2022, published 2026)
pIC50: −log10 of the molar value. Like-named read-outs stand apart in the source and are kept apart here.

Legend:
[1] = target: T1, CCK2R (Homo sapiens, UniProt P32239); assay: Competitive binding (FACS) on CCK2R-transfected HEK 293T cells with Cy5-labeled F11N derivative; settings: Cy5-labeled F11N derivative competitive ligand (Table 4)
T1 construct: expressed in transfected cells; host or cells: HEK 293T cells
T1 sequence (P32239 1-447): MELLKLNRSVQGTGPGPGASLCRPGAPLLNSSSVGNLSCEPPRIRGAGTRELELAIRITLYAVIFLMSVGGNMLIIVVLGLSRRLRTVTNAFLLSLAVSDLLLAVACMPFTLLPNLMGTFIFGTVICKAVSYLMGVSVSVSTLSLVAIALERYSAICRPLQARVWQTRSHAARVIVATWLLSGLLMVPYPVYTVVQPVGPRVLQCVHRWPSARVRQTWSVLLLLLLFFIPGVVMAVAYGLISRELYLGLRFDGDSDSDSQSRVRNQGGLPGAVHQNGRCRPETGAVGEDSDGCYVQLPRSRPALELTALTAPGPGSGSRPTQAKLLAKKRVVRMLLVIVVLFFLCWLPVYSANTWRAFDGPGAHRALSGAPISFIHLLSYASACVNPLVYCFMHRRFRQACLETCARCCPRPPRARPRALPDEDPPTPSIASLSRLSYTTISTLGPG

[2] = target: T2, SSTR2 (Homo sapiens, UniProt P30874); assay: Competitive binding (FACS) on SSTR2-transfected HEK 293T cells with Cy5-labled DOTA-TATE; settings: HEK 293T transfected, Cy5-labled DOTA-TATE competitive ligand (Table 4)
T2 construct: expressed in transfected cells; host or cells: HEK 293T cells
T2 sequence (P30874 whole entry, species assumed): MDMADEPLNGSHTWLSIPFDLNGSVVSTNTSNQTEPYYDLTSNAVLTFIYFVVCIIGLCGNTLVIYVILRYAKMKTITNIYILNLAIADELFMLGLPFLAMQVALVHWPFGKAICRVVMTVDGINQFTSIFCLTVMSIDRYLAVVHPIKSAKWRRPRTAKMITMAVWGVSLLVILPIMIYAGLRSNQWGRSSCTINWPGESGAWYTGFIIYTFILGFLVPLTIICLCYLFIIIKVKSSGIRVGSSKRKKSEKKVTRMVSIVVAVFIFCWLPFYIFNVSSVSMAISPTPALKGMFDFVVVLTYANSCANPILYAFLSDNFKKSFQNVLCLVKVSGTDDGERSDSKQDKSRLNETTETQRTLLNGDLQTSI
Description: Binding Affinity Tested by Using Cy5-Labled Competitive Ligands.
HEK 293T cells were transfected with SSTR2 or CCK2R-expressing plasmid by Lipofectamine 2000 reagent. 24 hours after transfection, cells were harvested and suspended with assay buffer (1% OVA in DMEM). […] The testing compound was further supplemented into the wells at different concentrations. After incubation for 1 hour at dark, cells were washed and suspended in FACS buffer (1% OVA in DPBS). The fluorescent signal was detected by FACS machine and the binding affinity of the testing compound was evaluated by calculation of IC50 for competitive binding of reference compound.

[3] = HEK 293T transfected, read-out: CCK2R IC50

| Compound | pIC50 [1, 3] | pIC50 [2] | pIC50 ([1]; CCK2R IC50, HEK 293T transfected) |
| --- | --- | --- | --- |
| C[C@@H](O)[C@H](NC(=O)[C@@H]1CSSC[C@H](NC(=O)[C@@H](Cc2ccccc2)C(=O)C(=O)COCCOCCNC(=O)[C@H](CCCCCC(=O)COCCOCCNC(=O)COCCOCCCC(=O)[C@H](CCC(=O)O)NC(=O)c2cccc(NC(=O)NN3CCc4ccccc4N(CC(=O)C(C)(C)C)C3=O)c2)NC(=O)CN2CCN(CC(=O)O)CCN(CC(=O)O)CCN(CC(=O)O)CC2)C(=O)N[C@@H](Cc2ccc(O)cc2)C(=O)N[C@H](Cc2c[nH]c3ccccc23)C(=O)N[C@@H](CCCCN)C(=O)N[C@@H]([C@@H](C)O)C(=O)C1)C(=O)O [Compound I-76, DOTA-K(-OEG-OEG-Glu-Z360)-OEG-f[CYwKTC]T-OH] | 7.95 | 8.26 | – |
| C[C@@H](O)[C@H](NC(=O)[C@@H]1CSSC[C@H](NC(=O)[C@@H](Cc2ccccc2)C(=O)C(=O)COCCOCCNC(=O)[C@H](CCCCCC(=O)COCCOCCNC(=O)CC[C@H](NC(=O)[C@H](CO)NC(=O)c2cccc(NC(=O)NN3CC(C4CCCCC4)c4ccccc4N(CC(=O)C(C)(C)C)C3=O)c2)C(=O)O)NC(=O)CN2CCN(CC(=O)O)CCN(CC(=O)O)CCN(CC(=O)O)CC2)C(=O)N[C@@H](Cc2ccc(O)cc2)C(=O)N[C@H](Cc2c[nH]c3ccccc23)C(=O)N[C@@H](CCCCN)C(=O)N[C@@H]([C@@H](C)O)C(=O)C1)C(=O)O (stereo partly shown) [Compound I-77, DOTA- K(-OEG- gGlu- Ser- Z360)- OEG- f]CYwKTC]T- OH] | 7.71 | 8.32 | – |
| C[C@@H](O)[C@H](NC(=O)[C@@H]1CSSC[C@H](NC(=O)[C@@H](Cc2ccccc2)C(=O)C(=O)COCCOCCNC(=O)[C@H](CCCCCC(=O)COCCOCCNC(=O)CC[C@H](NC(=O)[C@H](CN)NC(=O)c2cccc(NC(=O)NN3CC(C4CCCCC4)c4ccccc4N(CC(=O)C(C)(C)C)C3=O)c2)C(=O)O)NC(=O)CN2CCN(CC(=O)O)CCN(CC(=O)O)CCN(CC(=O)O)CC2)C(=O)N[C@@H](Cc2ccc(O)cc2)C(=O)N[C@H](Cc2c[nH]c3ccccc23)C(=O)N[C@@H](CCCCN)C(=O)N[C@@H]([C@@H](C)O)C(=O)C1)C(=O)O (stereo partly shown) [Compound I-78, DOTA- K(-OEG- gGlu- Dap- Z360)- OEG- f[CYwKTC]T- OH] | 7.52 | 8.21 | – |
| C[C@@H](O)[C@H](NC(=O)[C@@H]1CSSC[C@H](NC(=O)[C@@H](Cc2ccccc2)C(=O)C(=O)COCCOCCNC(=O)[C@H](CCCCCC(=O)COCCOCCNC(=O)[C@H](Cc2c[nH]cn2)NC(=O)[C@H](CCC(=O)O)NC(=O)c2cccc(NC(=O)N[C@@H]3CN(C4CCCCC4)c4ccccc4N(CC(=O)C(C)(C)C)C3=O)c2)NC(=O)CN2CCN(CC(=O)O)CCN(CC(=O)O)CCN(CC(=O)O)CC2)C(=O)N[C@@H](Cc2ccc(O)cc2)C(=O)N[C@H](Cc2c[nH]c3ccccc23)C(=O)N[C@@H](CCCCN)C(=O)N[C@@H]([C@@H](C)O)C(=O)C1)C(=O)O [Compound I-79, DOTA- K(-OEG- His- Glu- Z360)- OEG- f[CYwKTC]T- OH] | – | 8.17 | 7.78 |
| C[C@@H](O)[C@H](NC(=O)[C@@H]1CSSC[C@H](NC(=O)[C@@H](Cc2ccccc2)C(=O)C(=O)COCCOCCNC(=O)[C@H](CCCCCC(=O)COCCOCCNC(=O)COCCOCCNC(=O)C(Cc2ccc(C(=O)O)cc2)NC(=O)c2cccc(NC(=O)NN3CC(C4CCCCC4)c4ccccc4N(CC(=O)C(C)(C)C)C3=O)c2)NC(=O)CN2CCN(CC(=O)O)CCN(CC(=O)O)CCN(CC(=O)O)CC2)C(=O)N[C@@H](Cc2ccc(O)cc2)C(=O)N[C@H](Cc2c[nH]c3ccccc23)C(=O)N[C@@H](CCCCN)C(=O)N[C@@H]([C@@H](C)O)C(=O)C1)C(=O)O (stereo partly shown) [Compound I-80, DOTA-K(-OEG-OEG-Cbp-Z360)-OEG-f[CYwKTC]T-OH] | 7.62 | 8.30 | – |
